Measured values from patent US20050169984A1, “Pharmaceutical hard capsule containing inorganic substance” (DAIICHI SUNTORY PHARMA CO., LTD., priority 2004, published 2005).

Key:
[1] = Generation of Compound 2 on sealed non-contact storage of faropenem daloxate with hard gelatin capsule (HPLC peak area ratio); format: physicochemical
Text: (drifting moisture) for 7 days, and observed for the change. 1, generation quantity of Compound 2 has increased and hard gelatin capsule has insolubilized after 3 days of preservation. From the result, it is confirmed that insolubilization of hard gelatin capsule is caused by low molecular, gaseous aldehyde-like substance generated from degradation of faropenem daloxate.
FIG. 2 is showing the testing condition of observation for change while faropenem daloxate is kept with hard gelatin capsule without any contact with the capsule in sealed glass container at 60° C. (drifting moisture) for 7 days.

[2] = background statement; cited from earlier work

SMILES: Cc1oc(=O)oc1COC(=O)C1=C([C@H]2CCCO2)S[C@@H]2[C@@H]([C@@H](C)O)C(=O)N12 [faropenem daloxate, (5-methyl-2-oxo-1,3-dioxolene-4-yl)methyl (5R,6S)-6-[(R)-1-hydroxyethyl]-7-oxo-3-[(R)-2-tetrahydrofuryl]-4-thia-1-azabicyclo[3.2.0]hept-2-ene-2-carboxylate]
- Generation quantity of Compound 2 (%) ([1]; 60° C./drifting humidity/3 days): 0.02%
- Generation quantity of Compound 2 (%) ([1]; 60° C./drifting humidity/5 days): 0.04%
- Generation quantity of Compound 2 (%) ([1]; 60° C./drifting humidity/7 days): 0.07%
- oral absorbability [2]: ≥ 70%
